Measured values: article PMC3152630 (Pharmaceutical research, 2011)

System: diabetic rats (blood glucose level, BGL)
Experiment: BGL pharmacodynamics after insulin administration to diabetic rats
Assay type: in vivo, rat
Conditions: bolus subcutaneous injection of 0.1 U insulin, unbalanced ANOVA, P < 0.001

## Insulin
  reduction in BGL compared to untreated controls: significant reduction in BGL
